Common to all, as to type: in vivo, C57BL/6J mice
Test [1] deals with Short Bowel Syndome (SBS) mice. Kind of test: Short bowel syndrome (SBS) mouse model: post operative survival, body weight and dietary intake. As to conditions: ICR mice. From the text: (§1) Adult, male C57BL/6J mice with ˜30 g body weight of ˜4 months, received a 12-cm ileum and cecum resection (ICR) with jejunocolonic anastomosis (see FIG. 1, middle). The mice were then randomly assigned to either Cpd 18 or vehicle treatment As control for the abdominal surgery, the sham group was included which had laparotomy, bowel exposure, transection and end-to-end anastomosis but no resection (see FIG. 1, bottom). To prevent intestinal obstruction, all mice were switched to liquid diet 2 days before surgery and maintained on this diet until the end of the experiment. Throughout the experiment, animals were singly housed. All mice were studied with the intention to survive to day 14.
(§2) Briefly, mice were anesthetized by i.p. injection of ketamine (100 mg/kg bw) and xylazine (15 mg/kg bw) and orally intubated and ventilated. After midline incision, the distal small bowel and the cecum were exposed and then transected 12 cm proximal to the ileocecal junction and immediately distal to the cecum. The resected bowel was removed, and the length of the specimen was measured. An end-to-end, jejuno-colonic anastomosis was created and the abdomen was closed. In the sham group, laparotomy, bowel exposure, transection and end-to-end anastomosis but no resection was performed. Immediately after surgery, all mice were weighed and received 1 ml isotonic saline subcutaneously and carprofen 5 mg/kg body weight. All surgical procedures were performed by the same surgeon. Mice were kept in a heated terrarium (29° C.) for 4 h and then returned to individual cages with free access to liquid food and water. The liquid diet was provided in feeding tubes. Mice were allowed to recover for a day after surgery, and then injected once daily with 30 nmol/kg body weight of Cpd 18. […]
(§3) Mice were scored for wellbeing daily as described (Berlin et al. 2019). If the wellness score dropped to below 4 pts, or when weight loss exceeded 20%, the mouse was immediately killed and not analyzed further. […]
Body weight (FIG. 6) and food consumption (FIG. 7) was measured daily. […]

In test [2] the test system is Short Bowel Syndome (SBS) mice. In words: SBS mouse model: histological morphometry of intestine (mucosal height, bowel diameter). As to conditions: ICR mice, 30 nmol/kg once daily, vs sham.
Excerpt: as §1
Briefly, mice were anesthetized by i.p. injection of ketamine (100 mg/kg bw) and xylazine (15 mg/kg bw) and orally intubated and ventilated. […] The resected bowel was removed, and the length of the specimen was measured. […]
as §3
Sham and SBS mice were prepared as described under Preparation of Short Bowel Syndome (SBS) mice. […] Bowel diameter was measured from the same samples from serosa to serosa in two dimensions. […]

For test [3], the system named is Short Bowel Syndome (SBS) mice. In words: SBS mouse model: jejunum weight (wet weight, dry weight, water content per 2 cm). The settings on record: ICR mice, 30 nmol/kg once daily.
Excerpt: as §1
as §2, with “tubes.” for “tubes. Mice were allowed to recover for a day after surgery, and then injected once daily with 30 nmol/kg body weight of Cpd 18.”
as §3
Sham and SBS mice were prepared as described under Preparation of Short Bowel Syndome (SBS) mice. […] Water content and dry weight was then derived and calculated.

Test [4] has as its system Short Bowel Syndome (SBS) mice. Kind of test: SBS mouse model: gross morphology / length of intestine on day 14. As to conditions: ICR mice, 30 nmol/kg once daily, FIG. 16.
Excerpt: as §1
Briefly, mice were anesthetized by i.p. injection of ketamine (100 mg/kg bw) and xylazine (15 mg/kg bw) and orally intubated and ventilated. After midline incision, the distal small bowel and the cecum were exposed and then transected 12 cm proximal to the ileocecal junction and immediately distal to the cecum. The resected bowel was removed, and the length of the specimen was measured. An end-to-end, jejuno-colonic anastomosis was created and the abdomen was closed. […]
as §3

Starred links: 1 amine or outer side, 2 acyl side, 3 side chain; linkers in the order of their positions; H or OH if unused. Non-standard residues stand in square brackets, D forms with d. Groups on a side chain read outwards from the residue. *: point of attachment. C18 diacid = O=C(O)CCCCCCCCCCCCCCCCC(=O)*; γGlu = O=C(O)[C@H](CCC(=O)[*:2])N[*:1]; Aib = CC(C)(N)C(=O)O

Turning to “H-H[Aib]EGSFTSELATILDK([γGlu-C18 diacid])QAARDFIAWLIQHKITD-OH [Cpd 18]”, in test [1] (30 nmol/kg body weight once daily from day 1 after surgery, FIG. 5), the “survival rate after 14 days” value was found to be 74%. Moreover, the dietary intake entry in test [1] (30 nmol/kg once daily, liquid diet, measured daily, vs vehicle, FIG. 7) is “lower in the Cpd 18 treated animals from day 2 onwards as compared to vehicle”. Also, the “relative body weight (relative to initial weight)” value in test [1] (30 nmol/kg once daily, measured daily to day 14, vs vehicle, FIG. 6) was “differed from the vehicle group after six days onwards by starting to increase towards the initial weight”. The mucosal height result in test [2] (day 14, crypt base to villus tip, FIG. 8) is given as “approximately double the mucosal height of sham treated animals”. In addition, the bowel diameter result in test [2] (day 14, serosa to serosa, FIG. 9) was “approximately double the bowel diameter of sham treated animals”. In test [3] (day 14, desiccated sections, FIG. 11), the “dry weight per 2 cm of intestine” value is given as “the same increases in mass were measured”. Also, the wet weight of 2 cm sections of intestine in test [3] (day 14, proximal jejunum, FIG. 10) stood at 73 mg. In test [3] (day 14, FIG. 12), the “percentage of water content per 2 cm of intestine” value was “each group had an equal water content of the intestine”. The “bowel length and thickness” value in test [4] (day 14, representative example vs sham) is “An increase in bowel length and thickness”. Further, in test [4] (day 14, representative example, absent in vehicle), the “solid feces in intestine” value is “solid feces in the sham and Cpd 18 treated intestine”.

These data come from patent publication US20230110689A1, “AGONIST COMBINATION” (Zealand Pharma A/S, priority 2020, published 2023).
